Laboratory results published in PMC3951388, “Structure-Function Relationship of a Plant NCS1 Member – Homology Modeling and Mutagenesis Identified Residues Critical for Substrate Specificity of PLUTO, a Nucleobase Transporter from Arabidopsis” (PLoS ONE, 2014).
“Also recorded” adds a separate entry of the source.

Assays:
PLUTO E227A = PLUTO E227A (Arabidopsis thaliana, UniProt Q9LZD0, E227A); assay: Radiolabelled nucleobase uptake, PLUTO mutant in E. coli lacking uraA; settings: 20 μM, 5 min
Excerpt: (§1) For the uptake experiments, PLUTO was heterologously expressed in an Escherichia coli transposon insertion strain lacking the endogenous uracil permease uraA (JD23420), obtained from the National Institute of Genetics (Shizuoka, Japan; http://www.shigen.nig.ac.jp/ecoli/strain/top/top.jsp). PLUTO and site directed mutants were cloned in the bacterial expression vector pTAC-MAT-Tag-2 (Sigma Aldrich, Deisenhofen, Germany) as previously described. After the transformation of the cells with the PLUTO expression plasmids, the cells were grown at 37°C and 170 rpm in YT medium containing ampicillin and kanamycin. The expression of PLUTO and site directed mutants was initiated by the addition of isopropyl β-D-thiogalactopyranosid (IPTG) with a final concentration of 0.02% at an OD600 of 0.5. The cells were grown for 2 h after induction, collected by centrifugation for 5 min at 4500 g and 4°C and resuspended with potassium phosphate buffer (50 mM, pH 7.0) to an OD600 of 5. The cells were stored on ice until use.
(§2) Site directed mutagenesis was achieved by using the QuickChange II-E Site directed mutagenesis kit (Stratagene) according to the manufacturer's instructions.
(§3) The uptake of nucleobases with concentrations of 20 μM was performed at 37°C and permanent shaking at 200 rpm. For the analysis of PLUTO mutants the cells were incubated for 5 min (2 min for competition studies) and the uptake was terminated by vacuum filtration through a membrane filter (0.45 μm pore size; Whatman). The cells were washed three times with 1 ml ice cold potassium phosphate buffer (50 mM, pH 7.0) to remove unimported nucleobases and the radioactivity was quantified in a Packard Tricarb 2500 scintillation counter after the addition of 4 mL scintillation cocktail (Roth). For the competition studies, all competitors were added with ten-fold excess (200 μM) to the uptake medium containing 20 μM radiolabelled nucleobases.

PLUTO E227Q = PLUTO E227Q (Arabidopsis thaliana, UniProt Q9LZD0, E227Q); assay: as above; settings: 20 μM, 5 min
Excerpt: as §1, §2, §3

PLUTO E227K = biological target: T1, PLUTO E227K (Arabidopsis thaliana, UniProt Q9LZD0, E227K); assay: as above; format: cell-based; settings: 20 μM, 5 min
T1 construct: Heterologous expression of the full length PLUTO Arabidopsis gene in Escherichia coli uraA insertion mutants; expressed in transfected cells; host or cells: Escherichia coli JD23420 (uraA transposon insertion strain), vector pTAC-MAT-Tag-2
Excerpt: as §1, §2, §3

PLUTO E227Q G147Q = biological target: T2, PLUTO E227Q G147Q (Arabidopsis thaliana, UniProt Q9LZD0, E227Q/G147Q); assay: as above; format: cell-based; settings: 20 μM, 5 min
T2 construct: Heterologous expression of the full length PLUTO Arabidopsis gene in Escherichia coli uraA insertion mutants; expressed in transfected cells; host or cells: Escherichia coli JD23420 (uraA transposon insertion strain), vector pTAC-MAT-Tag-2
Excerpt: as §1, §2, §3

PLUTO E227Q T425A = biological target: T3, PLUTO E227Q T425A (Arabidopsis thaliana, UniProt Q9LZD0, E227Q/T425A); assay: as above; format: cell-based; settings: 20 μM, 5 min
T3 construct: Heterologous expression of the full length PLUTO Arabidopsis gene in Escherichia coli uraA insertion mutants; expressed in transfected cells; host or cells: Escherichia coli JD23420 (uraA transposon insertion strain), vector pTAC-MAT-Tag-2
Excerpt: as §1, §2, §3

PLUTO E227D = PLUTO E227D (Arabidopsis thaliana, UniProt Q9LZD0, E227D); settings: mutant E227D; 20 μM; 5 min
Excerpt: as §1, §2, §3

PLUTO G147Q = PLUTO G147Q (Arabidopsis thaliana, UniProt Q9LZD0, G147Q); settings: mutant G147Q; 20 μM; 5 min
Excerpt: as §1, §2, §3

PLUTO [1] = biological target: T4, PLUTO (Arabidopsis thaliana, UniProt Q9LZD0); format: cell-based; settings: wild type PLUTO, 200 μM competitor; for Effect of competitor on uracil transport: 20 μM [14C]-uracil; for Effect of competitor on uracil transport / Effect of competitor on guanine transport / Effect of competitor on adenine transport: 2 min; for Effect of competitor on guanine transport: 20 μM radiolabelled guanine; for Effect of competitor on adenine transport: 20 μM radiolabelled adenine
T4 construct: Heterologous expression of the full length PLUTO Arabidopsis gene in Escherichia coli uraA insertion mutants; expressed in transfected cells; host or cells: Escherichia coli JD23420 (uraA transposon insertion strain), vector pTAC-MAT-Tag-2
T4 sequence (Q9LZD0 1-599): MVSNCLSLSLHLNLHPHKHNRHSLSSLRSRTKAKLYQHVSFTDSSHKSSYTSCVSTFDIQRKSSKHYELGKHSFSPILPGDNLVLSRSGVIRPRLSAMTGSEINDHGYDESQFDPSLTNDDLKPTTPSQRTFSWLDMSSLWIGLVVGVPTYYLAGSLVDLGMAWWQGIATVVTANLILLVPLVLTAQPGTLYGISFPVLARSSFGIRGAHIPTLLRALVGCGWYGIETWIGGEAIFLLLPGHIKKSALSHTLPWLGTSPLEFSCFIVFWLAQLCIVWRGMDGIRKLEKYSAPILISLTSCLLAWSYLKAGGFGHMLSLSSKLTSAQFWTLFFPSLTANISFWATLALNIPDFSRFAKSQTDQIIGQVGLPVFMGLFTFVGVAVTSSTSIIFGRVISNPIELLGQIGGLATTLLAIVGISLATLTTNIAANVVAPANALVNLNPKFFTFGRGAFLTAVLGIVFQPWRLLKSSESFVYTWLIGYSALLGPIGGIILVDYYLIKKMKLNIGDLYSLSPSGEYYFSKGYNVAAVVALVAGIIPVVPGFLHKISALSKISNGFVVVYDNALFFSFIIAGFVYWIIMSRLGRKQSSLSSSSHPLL
Excerpt: as §1, §3

PLUTO [2] = biological target: T4, PLUTO; settings: full length PLUTO in E. coli uraA insertion mutants; ref [4]; cited from earlier work
PLUTO W223A = biological target: T5, PLUTO W223A (Arabidopsis thaliana, UniProt Q9LZD0, W223A); format: cell-based; settings: mutant W223A, 200 μM competitor; for Effect of competitor on uracil transport: 20 μM uracil; for Effect of competitor on guanine transport: 20 μM guanine
T5 construct: Heterologous expression of the full length PLUTO Arabidopsis gene in Escherichia coli uraA insertion mutants; expressed in transfected cells; host or cells: Escherichia coli JD23420 (uraA transposon insertion strain), vector pTAC-MAT-Tag-2
Excerpt: as §1, §2, §3

PLUTO [3] = biological target: T4, PLUTO; assay: Radiolabelled nucleobase uptake, wild type PLUTO expressed in E. coli lacking uraA; format: cell-based; settings: for Net import: wild type PLUTO (control), 5 min, corrected for uninduced cells
Excerpt: The cells were stored on ice until use.

PLUTO V145A G147Q = PLUTO V145A G147Q (Arabidopsis thaliana, UniProt Q9LZD0, G147Q/V145A); assay: Radiolabelled nucleobase uptake, PLUTO mutant in E. coli lacking uraA; settings: 20 μM, 5 min
Excerpt: as §1, §2, §3

PLUTO F341A = PLUTO F341A (Arabidopsis thaliana, UniProt Q9LZD0, F341A); settings: mutant F341A; 20 μM guanine, 200 μM competitor
Excerpt: as §1, §2, §3

PLUTO I226A = PLUTO I226A (Arabidopsis thaliana, UniProt Q9LZD0, I226A); settings: mutant I226A; 20 μM guanine, 200 μM competitor
Excerpt: as §1, §2, §3

Nc1ncnc2nc[nH]c12 = assay: cells, lysate or membranes; settings: corrected for uptake into uninduced cells, pH 7.0
Nc1nc2nc[nH]c2c(=O)[nH]1 = assay: cells, lysate or membranes; settings: pH 7.0; 37.0 °C
O=c1cc[nH]c(=O)[nH]1 = assay: cells, lysate or membranes; settings: corrected for uptake into uninduced cells, pH 7.0

PLUTO E227Q, sequence (Q9LZD0 whole entry E227Q): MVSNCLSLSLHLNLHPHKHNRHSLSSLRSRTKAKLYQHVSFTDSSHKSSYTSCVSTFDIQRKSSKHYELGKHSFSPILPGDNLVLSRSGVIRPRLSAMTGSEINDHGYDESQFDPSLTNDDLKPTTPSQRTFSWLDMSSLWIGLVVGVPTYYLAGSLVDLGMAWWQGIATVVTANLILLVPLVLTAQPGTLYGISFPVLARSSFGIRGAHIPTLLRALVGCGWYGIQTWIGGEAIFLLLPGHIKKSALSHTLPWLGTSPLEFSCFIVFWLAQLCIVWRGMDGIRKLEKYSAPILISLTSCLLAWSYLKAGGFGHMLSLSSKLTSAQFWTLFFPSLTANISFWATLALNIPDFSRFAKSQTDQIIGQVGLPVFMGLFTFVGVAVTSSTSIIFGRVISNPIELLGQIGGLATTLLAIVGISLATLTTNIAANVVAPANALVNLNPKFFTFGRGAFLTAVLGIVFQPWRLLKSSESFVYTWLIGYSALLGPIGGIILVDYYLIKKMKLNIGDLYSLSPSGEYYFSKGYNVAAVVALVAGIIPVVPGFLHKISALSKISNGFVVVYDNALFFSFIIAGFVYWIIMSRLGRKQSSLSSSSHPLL
T1 sequence (Q9LZD0 whole entry E227K): as the sequence (Q9LZD0 whole entry E227Q) above, with Q227K counted along it
PLUTO E227A, sequence (Q9LZD0 whole entry E227A): as the sequence (Q9LZD0 whole entry E227Q) above, with Q227A counted along it
T2 sequence (Q9LZD0 whole entry G147Q/E227Q): as the sequence (Q9LZD0 whole entry E227Q) above, with G147Q counted along it
T5 sequence (Q9LZD0 whole entry W223A): as the sequence (Q9LZD0 whole entry E227Q) above, with W223A, Q227E counted along it
PLUTO E227D, sequence (Q9LZD0 whole entry E227D): as the sequence (Q9LZD0 whole entry E227Q) above, with Q227D counted along it
PLUTO G147Q, sequence (Q9LZD0 whole entry G147Q): as the sequence (Q9LZD0 whole entry E227Q) above, with G147Q, Q227E counted along it
PLUTO V145A G147Q, sequence (Q9LZD0 whole entry V145A/G147Q): as the sequence (Q9LZD0 whole entry E227Q) above, with V145A, G147Q, Q227E counted along it
T3 sequence (Q9LZD0 whole entry E227Q/T425A): as the sequence (Q9LZD0 whole entry E227Q) above, with T425A counted along it
PLUTO I226A, sequence (Q9LZD0 whole entry I226A): as the sequence (Q9LZD0 whole entry E227Q) above, with I226A, Q227E counted along it
PLUTO F341A, sequence (Q9LZD0 whole entry F341A): as the sequence (Q9LZD0 whole entry E227Q) above, with Q227E, F341A counted along it

## Nc1ncnc2[nH]cnc12 [adenine]
PLUTO E227A
  Residual transport compared to controls: 26%
PLUTO E227Q
  Increase of transport versus control: 21%
PLUTO E227K
  Residual transport compared to controls: 7%
PLUTO E227Q G147Q
  Residual transport compared to controls: ≤ 16%
PLUTO E227Q T425A
  Residual transport compared to controls: 32%
PLUTO E227D
  Transport: 2.1 nmol mg^−1 protein
  Transport rate relative to controls: 64%
PLUTO G147Q
  Impairment of transport versus control: 45%
PLUTO [1]
  Effect of competitor on uracil transport: remained unaffected
  Effect of competitor on guanine transport: marked inhibitory effects
PLUTO [2]
  Apparent affinity: 0.4 µM

## O=C1NC(=O)C(Cc2ccccc2)N1 (stereo not shown) [benzyl hydantoin]
PLUTO [1]
  Transport by PLUTO judged by competitive binding analysis: no indication for a transport

## O=C1CCNC(=O)N1 [dihydrouracil]
PLUTO W223A
  Effect of competitor on uracil transport: inhibited

## Nc1nc2nc[nH]c2c(=O)[nH]1 [guanine]
PLUTO [3]; 20 μM
  Net import: 3.4 nmol mg^−1 protein
PLUTO E227A
  Residual transport compared to controls: 4%
PLUTO E227Q
  Residual transport compared to controls: 21%
PLUTO V145A G147Q
  Residual transport relative to controls: 12%
PLUTO E227K
  Residual transport compared to controls: 11%
PLUTO E227Q G147Q
  Residual transport compared to controls: ≤ 16%
PLUTO E227Q T425A
  Residual transport compared to controls: 25%
PLUTO E227D
  Transport: 0.86 nmol mg^−1 protein
PLUTO G147Q
  Transport activity (in words): not significantly altered
PLUTO [1]
  Effect of competitor on uracil transport: reduced
  Effect of competitor on adenine transport: not influenced
PLUTO [2]
  Apparent affinity: 6.3 µM

## O=c1[nH]cnc2nc[nH]c12 [hypoxanthine]
PLUTO F341A
  Effect of competitor on guanine transport: inhibited
PLUTO I226A
  Effect of competitor on guanine transport: inhibited
PLUTO [1]
  Effect of competitor on guanine transport: affected; also recorded: marked inhibition
PLUTO W223A
  Effect of competitor on guanine transport: no longer able to inhibit

## O=C(O)c1cc(=O)[nH]c(=O)[nH]1 [orotate]
PLUTO [3]; wild type PLUTO
  Transport substrate status in direct uptake studies: not identified as transport substrates
PLUTO [1]
  Effect of competitor on uracil transport: affected

## Cc1ncc(C[n+]2csc(CCO)c2C)c(N)n1 [thiamine]
PLUTO W223A
  Effect of competitor on uracil transport: inhibited

## Cc1c[nH]c(=O)[nH]c1=O [thymine]
PLUTO [3]; wild type PLUTO
  Transport substrate status in direct uptake studies: not identified as transport substrates
PLUTO [1]
  Effect of competitor on uracil transport: affected
PLUTO W223A
  Effect of competitor on uracil transport: inhibited

## O=c1cc[nH]c(=O)[nH]1 [uracil]
PLUTO [3]; 20 μM
  Net import: 3.2 nmol mg^−1 protein
PLUTO [3]; wild type PLUTO, 20 μM, 5 min incubation, not corrected for uninduced cells
  Import into induced E. coli cells: 3.7±0.28 nmol mg^−1 protein
PLUTO E227A
  Transport activity (in words): completely extinguished
PLUTO E227Q
  Transport activity (in words): completely extinguished
PLUTO V145A G147Q
  Increase of transport versus control: 50%
PLUTO E227K
  Transport activity (in words): completely extinguished
PLUTO E227Q G147Q
  Residual transport compared to controls: ≤ 16%
PLUTO E227D
  Transport: 0.53 nmol mg^−1 protein
PLUTO G147Q
  Transport activity (in words): not significantly altered
PLUTO [1]
  Effect of competitor on adenine transport: not influenced
  Effect of competitor on guanine transport: marked inhibitory effects
PLUTO [2]
  Apparent affinity: 16.4 µM

## O=c1[nH]c(=O)c2[nH]c(=O)[nH]c2[nH]1 [uric acid]
PLUTO [1]
  Effect of competitor on guanine transport: affected
PLUTO W223A
  Effect of competitor on guanine transport: no longer able to inhibit

## PLUTO E227A (Arabidopsis thaliana; E227A)
Nc1ncnc2nc[nH]c12; other: mutant E227A
  Km: 0.21 (±0.05) μM

## PLUTO E227D (Arabidopsis thaliana; E227D)
Nc1nc2nc[nH]c2c(=O)[nH]1
  Km: 3.70 (±0.72) μM
Nc1ncnc2nc[nH]c12; other: mutant E227D
  Km: 0.97 (±0.21) μM
O=c1cc[nH]c(=O)[nH]1; other: mutant E227D
  Km: 5.18 (±1.21) μM

## PLUTO E227Q (Arabidopsis thaliana; E227Q)
Nc1ncnc2nc[nH]c12; other: mutant E227Q
  Km: 0.22 (±0.05) μM

## PLUTO G147Q (Arabidopsis thaliana; G147Q)
Nc1ncnc2nc[nH]c12; other: mutant G147Q
  Km: 0.68 (±0.20) μM
O=c1cc[nH]c(=O)[nH]1; other: mutant G147Q
  Km: 36.07 (±2,32) μM

## PLUTO V145A G147Q (Arabidopsis thaliana; G147Q/V145A)
Nc1ncnc2nc[nH]c12; other: mutant V145A G147Q
  Km: 0.81 (±0.17) μM
O=c1cc[nH]c(=O)[nH]1; other: mutant V145A G147Q
  Km: 20.15 (±3.73) μM
